Values of other authors in article PMC11974678 (bioRxiv, 2025).

Biological target: T1, FABP1 (Homo sapiens, UniProt P07148)
T1 sequence (P07148 with tags, fused parts or gaps): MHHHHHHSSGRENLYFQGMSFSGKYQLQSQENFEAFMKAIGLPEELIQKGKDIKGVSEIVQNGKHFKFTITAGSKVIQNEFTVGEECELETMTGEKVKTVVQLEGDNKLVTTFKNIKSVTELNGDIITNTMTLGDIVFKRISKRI
Conditions: read-out: KD of binding to FABP1

O=C(O)C(F)(F)C(F)(F)C(F)(F)C(F)(F)C(F)(F)C(F)(F)C(F)(F)F [335-67-1, perfluorooctanoic acid]
Kd: 18.8 µM
